Assay [1] has as its target 6×HIS-tankyrase1 (1091-1325) (Homo sapiens (Human), UniProt O95271). Description: Tankyrase 1 biochemical assay (AlphaLisa, PARsylation). Particulars: 400 nM NAD, 60 minutes at RT; read-out: TNKS1 IC50. For orientation: In Alpha technology, singlet oxygen from a donor bead excites a nearby acceptor bead.
The target in assay [2] is 6×HIS-tankyrase 2 (946-1162) (Homo sapiens (Human), UniProt Q9H2K2). Description: Tankyrase 2 biochemical assay (AlphaLisa, PARsylation). Particulars: 250 nM NAD; read-out: TNKS2 IC50.
The subject of assay [3] is Axin2 accumulation in SW480 cells. Description: Axin2 384 immunofluorescence assay. In kind it is cell-based. Particulars: Homo sapiens, read-out: Axin2 384 IF EC50.
Assay [4] concerns the target PARP2 (Homo sapiens (Human), UniProt Q9UGN5). Nature of the assay: PARP2 biochemical assay (BPS kit).
Assay [5] concerns total β-catenin in SW480 colorectal cells. Description: Total β-catenin MSD 96-well plate assay for SW480 cells. As to conditions: Homo sapiens, SW480, read-out: SW480-Total beta-catenin (TBC) IC50 IP.
In assay [6] the target is PARP1 (Homo sapiens (Human), UniProt P09874). Nature of the assay: PARP1 biochemical assay (Trevigen kit). The text has this: PARP1 biochemical assay was purchased as a kit from Trevigen (cat.#4676-096-K) and used per manufacturers recommendations.

Read-outs that look alike come from different tables or passages of the source.

Sequence of 6×HIS-tankyrase 2 (946-1162) (Q9H2K2 946-1162): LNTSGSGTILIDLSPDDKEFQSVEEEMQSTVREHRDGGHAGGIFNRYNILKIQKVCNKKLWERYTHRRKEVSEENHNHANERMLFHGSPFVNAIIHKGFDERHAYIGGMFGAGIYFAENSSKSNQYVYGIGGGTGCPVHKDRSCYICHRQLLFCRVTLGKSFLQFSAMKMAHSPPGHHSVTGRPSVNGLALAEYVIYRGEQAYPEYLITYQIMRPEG
Sequence of 6×HIS-tankyrase1 (1091-1325) (O95271 1091-1325): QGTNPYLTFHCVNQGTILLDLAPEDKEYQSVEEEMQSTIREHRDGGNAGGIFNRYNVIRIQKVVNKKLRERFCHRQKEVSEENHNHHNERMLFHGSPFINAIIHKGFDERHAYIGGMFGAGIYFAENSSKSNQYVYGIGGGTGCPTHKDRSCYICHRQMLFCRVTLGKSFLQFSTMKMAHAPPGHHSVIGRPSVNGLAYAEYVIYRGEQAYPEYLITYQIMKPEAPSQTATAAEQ
Sequence of PARP2 (Q9UGN5 whole entry): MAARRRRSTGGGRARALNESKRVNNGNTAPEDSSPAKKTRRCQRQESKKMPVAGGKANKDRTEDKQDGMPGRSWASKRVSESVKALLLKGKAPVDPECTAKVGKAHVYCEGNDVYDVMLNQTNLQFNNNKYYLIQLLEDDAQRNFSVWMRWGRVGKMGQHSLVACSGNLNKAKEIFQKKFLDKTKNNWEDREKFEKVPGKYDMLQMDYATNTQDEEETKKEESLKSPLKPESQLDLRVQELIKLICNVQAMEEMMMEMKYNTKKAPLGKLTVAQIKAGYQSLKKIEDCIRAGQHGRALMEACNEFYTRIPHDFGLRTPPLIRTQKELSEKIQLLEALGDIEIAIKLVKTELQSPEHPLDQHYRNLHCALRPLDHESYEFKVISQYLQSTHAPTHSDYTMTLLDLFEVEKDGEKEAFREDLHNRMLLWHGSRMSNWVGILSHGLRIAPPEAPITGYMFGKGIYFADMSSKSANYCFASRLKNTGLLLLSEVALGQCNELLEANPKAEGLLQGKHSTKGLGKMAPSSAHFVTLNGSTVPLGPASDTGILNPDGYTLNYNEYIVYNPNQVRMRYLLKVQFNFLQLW
Sequence of PARP1 (P09874 whole entry): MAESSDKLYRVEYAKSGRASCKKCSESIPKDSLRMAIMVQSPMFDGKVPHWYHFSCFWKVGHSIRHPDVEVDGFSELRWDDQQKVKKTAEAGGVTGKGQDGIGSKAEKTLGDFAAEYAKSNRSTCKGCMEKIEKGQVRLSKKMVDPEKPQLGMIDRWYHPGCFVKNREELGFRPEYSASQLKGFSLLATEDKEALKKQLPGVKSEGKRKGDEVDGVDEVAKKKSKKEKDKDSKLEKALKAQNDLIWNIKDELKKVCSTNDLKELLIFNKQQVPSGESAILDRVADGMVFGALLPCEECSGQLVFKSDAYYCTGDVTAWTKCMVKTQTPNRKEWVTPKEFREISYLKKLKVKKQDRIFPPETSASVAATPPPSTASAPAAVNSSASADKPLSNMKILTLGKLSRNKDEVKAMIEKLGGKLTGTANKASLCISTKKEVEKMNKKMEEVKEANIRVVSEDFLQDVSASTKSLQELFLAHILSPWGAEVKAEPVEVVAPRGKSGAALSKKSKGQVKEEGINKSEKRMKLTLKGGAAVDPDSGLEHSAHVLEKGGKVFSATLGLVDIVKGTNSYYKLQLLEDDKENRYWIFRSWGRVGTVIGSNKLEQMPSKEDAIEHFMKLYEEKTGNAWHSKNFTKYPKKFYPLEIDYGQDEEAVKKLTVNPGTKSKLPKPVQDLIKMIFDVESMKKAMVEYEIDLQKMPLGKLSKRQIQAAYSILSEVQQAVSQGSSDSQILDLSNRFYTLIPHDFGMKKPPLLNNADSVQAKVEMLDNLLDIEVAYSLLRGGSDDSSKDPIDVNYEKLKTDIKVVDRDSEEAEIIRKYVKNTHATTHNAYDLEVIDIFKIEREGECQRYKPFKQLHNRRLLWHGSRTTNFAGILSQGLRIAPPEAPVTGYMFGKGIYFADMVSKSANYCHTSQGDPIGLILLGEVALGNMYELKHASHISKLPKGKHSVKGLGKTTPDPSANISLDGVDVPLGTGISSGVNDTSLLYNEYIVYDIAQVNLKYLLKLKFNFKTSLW

As for `O=c1[nH]c(CCNC(=O)[C@H]2CC[C@H](c3nnc(-c4ccccc4)o3)CC2)nc2ccccc12` [Example 1, trans-N-(2-(4-oxo-3,4-dihydro-2-quinazolinyl)ethyl)-4-(5-phenyl-1,3,4-oxadiazol-2-yl)cyclohexanecarboxamide], the IC50 (in general, the concentration at which inhibition is half-maximal) in assay [1] was determined as 66.6 nM; in assay [2], 22.5 nM; in assay [4], 3220 nM; in assay [5] it was 142 nM. Besides, the EC50 (as a rule, the concentration at which the effect is half-maximal) in assay [3] (SW480 cells, 24 hours) turned out to be 1390 nM.
On the same counts, the results for `O=C(CCCc1nc2ccccc2c(=O)[nH]1)N[C@H]1CC[C@H](c2nnc(-c3ccc(F)c(Cl)c3)o2)CC1` [Example 35, N-(trans-4-(5-(3-chloro-4-fluorophenyl)-1,3,4-oxadiazol-2-yl)cyclohexyl)-4-(4-oxo-3,4-dihydro-2-quinazolinyl)butanamide 2,2,2-trifluoroacetate] are 0.277 nM, 0.196 nM, 923 nM, 19.7 nM and 10.8 nM.
In the case of `O=C(CCSc1nc2ccccc2c(=O)[nH]1)N[C@H]1C[C@@H](c2nnc(-c3ccccc3)o2)C1` [Example 39, 3-((4-oxo-3,4-dihydroquinazolin-2-yl)thio)-N-((1s,3s)-3-(5-phenyl-1,3,4-oxadiazol-2-yl)cyclobutyl)propanamide], the half-maximal inhibitory concentration (IC50) was determined as 0.405 nM in assay [1], 0.389 nM in assay [2] and 1900 nM in assay [4].
For `O=C(CCSc1nc2ccccc2c(=O)[nH]1)N[C@H]1C[C@H](c2nnc(-c3ccccc3)o2)C1` [Example 40, 3-((4-oxo-3,4-dihydroquinazolin-2-yl)thio)-N-((1r,3r)-3-(5-phenyl-1,3,4-oxadiazol-2-yl)cyclobutyl)propanamide], the IC50 in assay [1] stood at 0.0891 nM; in assay [4], 3970 nM.
On to `Cn1c(=O)n(C2CCN(C(=O)CCCc3nc4ccccc4c(=O)[nH]3)CC2)c2ccc(Cl)cc21` [Example 45, 2-(4-(4-(5-chloro-3-methyl-2-oxo-2,3-dihydro-1H-benzimidazol-1-yl)-1-piperidinyl)-4-oxobutyl)-4(3H)-quinazolinone], for which the IC50 in assay [1] is 73.7 nM; in assay [2], 52.5 nM; in assay [4], 1020 nM; in assay [5] it was 2340 nM. For the same molecule, the EC50 in assay [3] (SW480 cells, 24 hours) was 4630 nM.
As to `O=C(CCCc1nc2ccccc2c(=O)[nH]1)N1CCC(n2cc(-c3ccccc3)[nH]c2=O)CC1` [Example 49, 2-(4-oxo-4-(4-(2-oxo-4-phenyl-2,3-dihydro-1H-imidazol-1-yl)-1-piperidinyl)butyl)-4(3H)-quinazolinone trifluoroacetic acid], the IC50 in assay [1] amounted to 118 nM; in assay [5], 530 nM. Moreover, the EC50 in assay [3] (SW480, 24 h) is 5330 nM.
As for `O=C(CCc1nc2ccccc2c(=O)[nH]1)N[C@H]1CC[C@H](n2c(=O)[nH]c3ccccc32)CC1` [Example 84, N-(trans-4-(2-oxo-2,3-dihydro-1H-benzo[d]imidazol-1-yl)cyclohexyl)-3-(4-oxo-3,4-dihydroquinazolin-2-yl)propanamide], the IC50 came to 1.44 nM in assay [1], 0.671 nM in assay [2], 1030 nM in assay [4] and 433 nM in assay [5]. For the same molecule, the EC50 in assay [3] (SW480 cells, 24 hours) worked out at 1780 nM.
For the molecule `O=C(CCc1nc2ccccc2c(=O)[nH]1)N[C@H]1CC[C@H](n2c(=O)[nH]c3ccc(Cl)cc32)CC1` [Example 86, N-((1r,4r)-4-(6-chloro-2-oxo-2,3-dihydro-1H-benzo[d]imidazol-1-yl)cyclohexyl)-3-(4-oxo-3,4-dihydroquinazolin-2-yl)propanamide], the IC50 in assay [1] was 1.01 nM; in assay [2] it was 0.347 nM; in assay [4], 279 nM; in assay [5] it was 32.6 nM. The EC50 in assay [3] (SW480 cells, 24 hours) was determined as 207 nM.
In the same order, the values of `O=C(CCSc1nc2ccccc2c(=O)[nH]1)N[C@H]1CC[C@H](n2c(=O)[nH]c3cc(Cl)ccc32)CC1` [Example 90, N-((1r,4r)-4-(5-chloro-2-oxo-2,3-dihydro-1H-benzo[d]imidazol-1-yl)cyclohexyl)-3-((4-oxo-3,4-dihydroquinazolin-2-yl)thio)propanamide] are 0.127 nM, 0.796 nM, 720 nM, 7.84 nM and 3.42 nM.
On the same counts, the results for `N#Cc1ccc2c(c1)[nH]c(=O)n2[C@H]1CC[C@H](NC(=O)CSc2nc3ccccc3c(=O)[nH]2)CC1` [Example 103, N-((1r,4r)-4-(5-cyano-2-oxo-2,3-dihydro-1H-benzo[d]imidazol-1-yl)cyclohexyl)-2-((4-oxo-3,4-dihydroquinazolin-2-yl)thio)acetamide] are 0.129 nM, 9.92 nM, 2280 nM, 138 nM and 198 nM.
Take `O=C(CCSc1nc2ccccc2c(=O)[nH]1)N[C@H]1CC[C@H](c2nnc(-c3ccc(F)cc3)o2)CC1` [Example 117, N-((1r,4r)-4-(5-(4-fluorophenyl)-1,3,4-oxadiazol-2-yl)cyclohexyl)-3-((4-oxo-3,4-dihydroquinazolin-2-yl)thio)propanamide]: the IC50 in assay [1] worked out at 0.269 nM; in assay [2], 3.98 nM; in assay [5], 1.23 nM. In assay [3] (SW480 cells, 24 hours), the EC50 was 2.78 nM.
As for `O=C(CCSc1nc2ccccc2c(=O)[nH]1)N[C@H]1CC[C@H](c2nnc(-c3cccc(Cl)c3)o2)CC1` [Example 118, N-((1r,4r)-4-(5-(3-chlorophenyl)-1,3,4-oxadiazol-2-yl)cyclohexyl)-3-((4-oxo-3,4-dihydroquinazolin-2-yl)thio)propanamide], the IC50 in assay [1] came out at 0.107 nM; in assay [2], 4.98 nM; in assay [4], 3280 nM; in assay [5], 1.2 nM. Besides, in assay [3] (SW480 cells, 24 hours), the EC50 came to 3.34 nM.
As to `O=C(CCSc1nc2ccccc2c(=O)[nH]1)N[C@H]1CC[C@H](c2nnc(-c3cccc(F)c3)o2)CC1` [Example 119, N-((1r,4r)-4-(5-(3-fluorophenyl)-1,3,4-oxadiazol-2-yl)cyclohexyl)-3-((4-oxo-3,4-dihydroquinazolin-2-yl)thio)propanamide], the IC50 in assay [1] amounted to 0.194 nM; in assay [2], 3.34 nM; in assay [5] it was 3 nM. The EC50 in assay [3] (SW480 cells, 24 hours) worked out at 5.72 nM.
In the case of `COc1cccc(-c2nnc([C@H]3CC[C@H](NC(=O)CCSc4nc5ccccc5c(=O)[nH]4)CC3)o2)c1` [Example 120, N-((1r,4r)-4-(5-(3-methoxyphenyl)-1,3,4-oxadiazol-2-yl)cyclohexyl)-3-((4-oxo-3,4-dihydroquinazolin-2-yl)thio)propanamide], the IC50 in assay [1] came to 0.0647 nM; in assay [2] it was 5.35 nM; in assay [4], 3730 nM; in assay [5] it was 2.03 nM. Further, the EC50 in assay [3] (SW480 cells, 24 hours) stood at 2.33 nM.
As for `O=C(CCSc1nc2ccccc2c(=O)[nH]1)N[C@H]1CC[C@H](c2nnc(-c3ccc(Cl)cc3)o2)CC1` [Example 125, N-((1r,4r)-4-(5-(4-chlorophenyl)-1,3,4-oxadiazol-2-yl)cyclohexyl)-3-((4-oxo-3,4-dihydroquinazolin-2-yl)thio)propanamide], the IC50 came out at 1.52 nM in assay [1], 0.179 nM in assay [2] and 1.93 nM in assay [5]. In addition, the EC50 in assay [3] (SW480 cells, 24 hours) turned out to be 1.68 nM.
As for `O=C(CCc1nc2ccccc2c(=O)[nH]1)N[C@H]1CC[C@H](c2nnc(-c3cccc(F)c3)o2)CC1` [Example 129, N-((1r,4r)-4-(5-(3-fluorophenyl)-1,3,4-oxadiazol-2-yl)cyclohexyl)-3-(4-oxo-3,4-dihydroquinazolin-2-yl)propanamide], the IC50 in assay [2] was 12.8 nM; in assay [6], 1.09 µM; in assay [4] it was 1960 nM; in assay [5], 124 nM. Besides, the EC50 in assay [3] (SW480 cells, 24 hours) amounted to 435 nM.
In the same order, the values of `O=C(CCc1nc2ccccc2c(=O)[nH]1)N[C@H]1CC[C@H](c2nnc(-c3cccc(Cl)c3)o2)CC1` [Example 130, N-((1r,4r)-4-(5-(3-chlorophenyl)-1,3,4-oxadiazol-2-yl)cyclohexyl)-3-(4-oxo-3,4-dihydroquinazolin-2-yl)propanamide] are 7.92 nM, 0.998 µM, 944 nM, 110 nM and 240 nM.
On to `O=C(CCc1nc2ccccc2c(=O)[nH]1)N[C@H]1CC[C@H](c2nnc(-c3cccnc3)o2)CC1` [Example 136, 3-(4-oxo-3,4-dihydroquinazolin-2-yl)-N-((1r,4r)-4-(5-(pyridin-3-yl)-1,3,4-oxadiazol-2-yl)cyclohexyl)propanamide], for which the IC50 in assay [2] was found to be 32.7 nM; in assay [6], 10.8 µM; in assay [4] it was 1060 nM; in assay [5] it was 960 nM. Further, the EC50 in assay [3] (SW480 cells, 24 hours) amounted to 1190 nM.
On to `CC(C)(c1ccccc1)c1nnc([C@H]2CC[C@H](NC(=O)CCc3nc4ccccc4c(=O)[nH]3)CC2)o1` [Example 140, 3-(4-oxo-3,4-dihydroquinazolin-2-yl)-N-((1r,4r)-4-(5-(2-phenylpropan-2-yl)-1,3,4-oxadiazol-2-yl)cyclohexyl)propanamide], for which the IC50 in assay [1] amounted to 1210 nM; in assay [6], 7.45 µM; in assay [4], 1290 nM.
For `O=C(CC[S+]([O-])c1nc2ccccc2c(=O)[nH]1)N[C@H]1CC[C@H](c2nnc(-c3ccccc3)o2)CC1` (stereo partly drawn) [Example 143, 3-((4-oxo-3,4-dihydroquinazolin-2-yl)sulfinyl)-N-((1r,4r)-4-(5-phenyl-1,3,4-oxadiazol-2-yl)cyclohexyl)propanamide], the IC50 is 17.9 nM in assay [1], 52.3 nM in assay [2] and 929 nM in assay [5]. For the same molecule, the EC50 in assay [3] (SW480 cells, 24 hours) amounted to 970 nM.
